According to patent US9902702B2, “Spirocycloheptanes as inhibitors of rock” (BRISTOL-MYERS SQUIBB COMPANY, priority 2014, dated 2018):
pIC50: −log10 of the molar value.

target: ROCK2 (Homo sapiens, UniProt O75116); assay: ROCK assay: phosphorylation of FITC peptide substrate, LABCHIP 3000 mobility shift; format: biochemical; settings: 5 μM ATP, 1.5 μM peptide substrate; read-out: ROCK2 Activity (ROCK IC50 range)
Experimental: The effectiveness of compounds of the present invention as ROCK inhibitors can be determined in a 30 μL assay containing 20 mM HEPES, pH 7.5, 20 mM MgCl2, 0.015% Brij-35, 4 mM DTT, 5 μM ATP and 1.5 μM peptide substrate (FITC-AHA-AKRRRLSSLRA-OH). Compounds were dissolved in DMSO so that the final concentration of DMSO was <2%, and the reaction was initiated with Rho kinase variants. After incubation, the reaction was terminated by the addition of EDTA and the phosphorylated and non-phosphorylated peptides separated using a LABCHIP® 3000 Reader (Caliper Life Sciences). […] Compounds were tested in dose-response format, and the inhibition of kinase activity was calculated at each concentration of compound. The inhibition data were fit using a curve-fitting program to determine the IC50; i.e., the concentration of compound required to inhibit 50% of kinase activity.
Representative Examples were tested in the ROCK assay described above and found having ROCK inhibitory activity.

ROCK2, sequence (O75116 whole entry, species assumed): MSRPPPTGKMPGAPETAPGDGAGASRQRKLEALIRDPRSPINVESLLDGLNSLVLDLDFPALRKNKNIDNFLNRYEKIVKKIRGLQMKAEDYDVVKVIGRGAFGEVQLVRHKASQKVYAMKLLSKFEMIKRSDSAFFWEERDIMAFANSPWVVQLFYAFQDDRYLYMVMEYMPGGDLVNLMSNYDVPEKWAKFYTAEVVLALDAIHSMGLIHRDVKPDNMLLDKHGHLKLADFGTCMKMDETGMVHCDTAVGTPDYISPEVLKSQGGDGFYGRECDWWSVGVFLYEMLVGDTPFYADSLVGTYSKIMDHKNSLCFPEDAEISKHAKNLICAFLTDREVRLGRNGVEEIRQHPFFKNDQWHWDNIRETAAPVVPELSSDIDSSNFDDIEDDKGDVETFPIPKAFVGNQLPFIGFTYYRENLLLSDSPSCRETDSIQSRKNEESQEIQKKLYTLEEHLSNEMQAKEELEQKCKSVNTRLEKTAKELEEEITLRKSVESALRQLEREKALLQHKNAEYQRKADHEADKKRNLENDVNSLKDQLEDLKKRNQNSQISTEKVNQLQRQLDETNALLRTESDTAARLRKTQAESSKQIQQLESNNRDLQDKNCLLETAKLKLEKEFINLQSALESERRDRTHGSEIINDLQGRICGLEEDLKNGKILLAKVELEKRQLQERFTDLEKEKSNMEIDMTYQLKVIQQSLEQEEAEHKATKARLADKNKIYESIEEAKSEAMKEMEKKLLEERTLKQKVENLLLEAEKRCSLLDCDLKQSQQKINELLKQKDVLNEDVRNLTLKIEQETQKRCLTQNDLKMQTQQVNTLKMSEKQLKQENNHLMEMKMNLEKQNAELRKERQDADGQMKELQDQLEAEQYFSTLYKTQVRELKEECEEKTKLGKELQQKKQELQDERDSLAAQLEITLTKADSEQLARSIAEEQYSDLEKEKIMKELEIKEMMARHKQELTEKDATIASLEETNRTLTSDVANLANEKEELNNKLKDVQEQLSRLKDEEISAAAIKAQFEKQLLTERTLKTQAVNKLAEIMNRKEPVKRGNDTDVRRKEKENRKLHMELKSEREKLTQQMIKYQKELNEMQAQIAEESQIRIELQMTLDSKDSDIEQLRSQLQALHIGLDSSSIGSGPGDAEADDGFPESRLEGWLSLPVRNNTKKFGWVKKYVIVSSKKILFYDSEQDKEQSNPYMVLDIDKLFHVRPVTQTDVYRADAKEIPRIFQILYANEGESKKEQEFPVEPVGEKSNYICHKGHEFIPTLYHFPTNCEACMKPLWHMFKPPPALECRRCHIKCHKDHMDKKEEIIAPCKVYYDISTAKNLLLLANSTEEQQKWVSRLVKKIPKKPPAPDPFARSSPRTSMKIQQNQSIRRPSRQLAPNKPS

| SMILES | pIC50 |
| --- | --- |
| [H][C@]1(c2n[nH]c(=O)c3ccccc32)C[C@]2(C[C@@H](NC(=O)c3ccc4ccccc4n3)C2)C1 (stereo partly drawn) [Example 330, N-((aR)-6-(4-oxo-3,4-dihydrophthalazin-1-yl)spiro[3.3]heptan-2-yl)quinoline-2-carboxamide] | 7.00 to 7.82 |
| O=C(Nc1ccc(Br)cc1)N[C@H]1CC2(C1)C[C@H](c1n[nH]c(=O)c3ccccc31)C2 (stereo partly drawn) [Example 227, 1-(4-bromophenyl)-3-((aR)-6-(4-oxo-3,4-dihydrophthalazin-1-yl)spiro[3.3]heptan-2-yl)urea] | 7.00 to 7.82 |
| COc1ccc2c(c1)CCN2C(=O)NC1CC2(C1)CC(c1n[nH]c(=O)c3ccccc13)C2 [Example 258, 5-methoxy-N-((aR)-6-(4-oxo-3,4-dihydrophthalazin-1-yl)spiro[3.3]heptan-2-yl)indoline-1-carboxamide] | 7.82 to 8.29 |
| [H][C@]1(c2n[nH]c(=O)c3ccccc32)C[C@@]2(C[C@H](NC(=O)c3cc4ccccc4[nH]3)C2)C1 (stereo partly drawn) [Example 298, N-((aR)-6-(4-oxo-3,4-dihydrophthalazin-1-yl)spiro[3.3]heptan-2-yl)-1H-indole-2-carboxamide] | 7.82 to 8.29 |
| [2H]C([2H])([2H])n1cc(-c2ccc3c(c2)CN(C(=O)NC2CC4(C2)CC(c2n[nH]c(=O)c5ccccc25)C4)C3)cn1 [Example 253, 5-(1-(^2H3)methyl-1H-pyrazol-4-yl)-N-((aR)-6-(4-oxo-3,4-dihydrophthalazin-1-yl)spiro[3.3]heptan-2-yl)isoindoline-2-carboxamide] | 7.82 to 8.29 |
| O=c1[nH]nc([C@H]2CC3(C[C@H](Nc4ccccc4[N+](=O)[O-])C3)C2)c2ccccc12 (stereo partly drawn) [Example 460, 4-((aR)-6-((2-nitrophenyl)amino)spiro[3.3]heptan-2-yl)phthalazin-1(2H)-one] | 7.00 to 7.82 |
| [H][C@]1(c2n[nH]c(=O)c3ccccc32)C[C@]2(C[C@@H](n3c(=O)[nH]c4ccccc43)C2)C1 (stereo partly drawn) [Example 461, 4-((aR)-6-(2-oxo-2,3-dihydro-1H-benzo[d]imidazol-1-yl)spiro[3.3]heptan-2-yl)phthalazin-1(2H)one] | 5.68 to 7.00 |
| COc1ccccc1-n1cc(C(=O)NC2CC3(C2)CC(c2n[nH]c(=O)c4ccccc24)C3)nn1 (stereo not shown) [Example 129, 1-(2-methoxyphenyl)-N-((αR)-6-(4-oxo-3,4-dihydrophthalazin-1-yl)spiro[3.3]heptan-2-yl)-1H-1,2,3-triazole-4-carboxamide] | 7.82 to 8.29 |
| [H][C@]1(c2n[nH]c(=O)c3ccccc32)C[C@]2(C[C@@H](NC(=O)c3ccc(-n4ccnc4)cc3)C2)C1 (stereo partly drawn) [Example 359, 4-(1H-imidazol-1-yl)-N-((aR)-6-(4-oxo-3,4-dihydrophthalazin-1-yl)spiro[3.3]heptan-2-yl)benzamide] | 5.68 to 7.00 |
| [H][C@]1(c2n[nH]c(=O)c3ccccc32)C[C@]2(C[C@@H](NC(=O)c3cccc(-n4cccn4)c3)C2)C1 (stereo partly drawn) [Example 336, N-((aR)-6-(4-oxo-3,4-dihydrophthalazin-1-yl)spiro[3.3]heptan-2-yl)-3-(1H-pyrazol-1-yl)benzamide] | 7.00 to 7.82 |
| [H][C@]1(c2n[nH]c(=O)c3ccccc32)C[C@]2(C[C@@H](NC(=O)c3ccc(C(F)(F)F)cn3)C2)C1 (stereo partly drawn) [Example 370, N-((aR)-6-(4-oxo-3,4-dihydrophthalazin-1-yl)spiro[3.3]heptan-2-yl)-5-(trifluoromethyl) picolinamide] | 7.82 to 8.29 |
| N#Cc1ccc2c(C(=O)NC3CC4(C3)CC(c3n[nH]c(=O)c5ccccc35)C4)cnn2c1 (stereo not drawn) [Example 168, 6-cyano-N-((αR)-6-(4-oxo-3,4-dihydrophthalazin-1-yl)spiro[3.3]heptan-2-yl)pyrazolo[1,5-α]pyridine-3-carboxamide] | 7.00 to 7.82 |
| [H][C@]1(c2n[nH]c(=O)c3ccccc32)C[C@]2(C[C@@H](NC(=O)c3cnc4ccc(C(F)(F)F)cn34)C2)C1 (stereo partly drawn) [Example 390, N-((aR)-6-(4-oxo-3,4-dihydrophthalazin-1-yl)spiro[3.3]heptan-2-yl)-6-(trifluoro-methyl)imidazo[1,2-a]pyridine-3-carboxamide] | 7.82 to 8.29 |
| O=C(NC1CC2(C1)CC(c1n[nH]c(=O)c3ccccc13)C2)c1ccnn1CC(F)F [Example 100, 1-(2,2-difluoroethyl)-N-((aR)-6-(4-oxo-3,4-dihydrophthalazin-1-yl)spiro[3.3]heptan-2-yl)-1H-pyrazole-5-carboxamide] | 5.68 to 7.00 |

Continued, values first:

| pIC50 | SMILES |
| --- | --- |
| 8.30 to 8.70 | O=C(NC1CC2(C1)CC(c1n[nH]c(=O)c3ccccc13)C2)c1cnn2ccccc12 [Example 74, N-((aR)-6-(4-oxo-3,4-dihydrophthalazin-1-yl)spiro[3.3]heptan-2-yl)pyrazolo[1,5-a]pyridine-3-carboxamide] |
| 7.82 to 8.29 | CC(C)(O)Cn1nc(C(=O)NC2CC3(C2)CC(c2n[nH]c(=O)c4ccccc24)C3)c2ccc(C=Cc3ccccc3)cc21 (stereo not shown) [Example 148, 1-(2-hydroxy-2-methylpropyl)-N-((αR)-6-(4-oxo-3,4-dihydrophthalazin-1-yl)spiro[3.3]heptan-2-yl)-6-((E)-styryl)-1H-indazole-3-carboxamide] |
| 8.30 to 8.70 | O=C(NC1CC2(C1)CC(c1n[nH]c(=O)c3ccccc13)C2)c1cnn2cc(-c3cnn(CC(O)C(F)(F)F)c3)ccc12 [Example 171, N-((αR)-6-(4-oxo-3,4-dihydrophthalazin-1-yl)spiro[3.3]heptan-2-yl)-6-(1-((S)-3,3,3-trifluoro-2-hydroxypropyl)-1H-pyrazol-4-yl)pyrazolo[1,5-α]pyridine-3-carboxamide] |
| 8.30 to 8.70 | [H][C@]1(c2n[nH]c(=O)c3ccccc32)C[C@]2(C[C@@H](NC(=O)c3cnc4cc(F)ccn34)C2)C1 (stereo partly drawn) [Example 387, 7-fluoro-N-((aR)-6-(4-oxo-3,4-dihydrophthalazin-1-yl)spiro[3.3]heptan-2-yl)imidazo[1,2-a]pyridine-3-carboxamide] |
| 7.82 to 8.29 | CN(C)Cc1c(OCc2ccccc2)ccc2c(C(=O)NC3CC4(C3)CC(c3n[nH]c(=O)c5ccccc35)C4)cnn12 (stereo not drawn) [Example 130, 6-(benzyloxy)-7-((dimethylamino)methyl)-N-((αR)-6-(4-oxo-3,4-dihydrophthalazin-1-yl)spiro[3.3]heptan-2-yl)pyrazolo[1,5-α]pyridine-3-carboxamide] |
| 7.82 to 8.29 | [H][C@]1(c2n[nH]c(=O)c3ccccc32)C[C@]2(C[C@@H](NC(=O)c3cnc4cc(C#N)ccn34)C2)C1 (stereo partly drawn) [Example 379, 7-cyano-N-((aR)-6-(4-oxo-3,4-dihydrophthalazin-1-yl)spiro[3.3]heptan-2-yl)imidazo[1,2-a]pyridine-3-carboxamide] |
| 8.70 to 9.70 | O=C(NC1CC2(C1)CC(c1n[nH]c(=O)c3ccccc13)C2)c1cnn2cc(OCC(O)C(F)(F)F)ccc12 [Example 107, N-((aR)-6-(4-oxo-3,4-dihydrophthalazin-1-yl)spiro[3.3]heptan-2-yl)-6-(3,3,3-trifluoro-2-hydroxypropoxy)pyrazolo[1,5-a]pyridine-3-carboxamide] |
| 8.30 to 8.70 | O=C(NC1CC2(C1)CC(c1n[nH]c(=O)c3ccccc13)C2)N1CCc2cc(-c3cnn(C4CCOCC4)c3)ccc21 [Example 240, N-((aR)-6-(4-oxo-3,4-dihydrophthalazin-1-yl)spiro[3.3]heptan-2-yl)-5-(1-(tetrahydro-2H-pyran-4-yl)-1H-pyrazol-4-yl)indoline-1-carboxamide] |
| 8.70 to 9.70 | O=C(NC1CC2(C1)CC(c1n[nH]c(=O)c3ccccc13)C2)c1cnn2cc(N3CCC(F)C3)ccc12 [Example 88, 6-((R)-3-fluoropyrrolidin-1-yl)-N-((aR)-6-(4-oxo-3,4-dihydrophthalazin-1-yl)spiro[3.3]heptan-2-yl)pyrazolo[1,5-a]pyridine-3-carboxamide] |
| 8.70 to 9.70 | CN1CCN(CCOc2ccc3c(C(=O)NC4CC5(C4)CC(c4n[nH]c(=O)c6ccccc46)C5)cnn3c2)CC1 [Example 188, 6-(2-(4-methylpiperazin-1-yl)ethoxy)-N-((aR)-6-(4-oxo-3,4-dihydrophthalazin-1-yl)spiro[3.3]heptan-2-yl)pyrazolo[1,5-a]pyridine-3-carboxamide] |
| 8.30 to 8.70 | Cn1cc(-c2ccn3ncc(C(=O)NC4CC5(C4)CC(c4n[nH]c(=O)c6ccccc46)C5)c3c2)cn1 [Example 85, 5-(1-methyl-1H-pyrazol-4-yl)-N-((aR)-6-(4-oxo-3,4-dihydrophthalazin-1-yl)spiro[3.3]heptan-2-yl)pyrazolo[1,5-a]pyridine-3-carboxamide] |
| 8.70 to 9.70 | Cn1cc(-c2ccc3c(C(=O)N[C@H]4CC5(C4)C[C@H](c4n[nH]c(=O)c6ccccc64)C5)onc3c2)cn1 (stereo partly drawn) [Example 277, 6-(1-methyl-1H-pyrazol-4-yl)-N-((aR)-6-(4-oxo-3,4-dihydrophthalazin-1-yl)spiro[3.3]heptan-2-yl)benzo[c]isoxazole-3-carboxamide] |
| 8.70 to 9.70 | Cc1nc(N2CCCCC2)sc1C(=O)N[C@H]1CC2(C1)C[C@H](c1n[nH]c(=O)c3ccccc31)C2 (stereo partly drawn) [Example 33, 4-Methyl-N-((aR)-6-(4-oxo-3,4-dihydrophthalazin-1-yl)spiro[3.3]heptan-2-yl)-2-(piperidin-1-yl)thiazole-5-carboxamide] |
| 8.70 to 9.70 | O=C(NC1CC2(C1)CC(c1n[nH]c(=O)c3ccccc13)C2)c1cnn2cc(-c3cnn(CC4CC4)c3)ccc12 [Example 218, 6-(1-(cyclopropylmethyl)-1H-pyrazol-4-yl)-N-((aR)-6-(4-oxo-3,4-dihydrophthalazin-1-yl)spiro[3.3]heptan-2-yl)pyrazolo[1,5-a]pyridine-3-carboxamide] |
